# Patent publication US11904020B2, “Bicyclic peptide ligands specific for TREM2” (Bicycle Tx Limited, priority 2021, dated 2024)
# *1 amine or outer side, *2 acyl side, *3 side chain or, on linkers, in order; H or OH if unused. Where a SMILES comes first, the peptide text is derived from it. Bridges are numbered along the chain shown (N, C = ends). [ ]: non-standard residue; d: D form. TATA = O=C(CC[*:1])N1CN(C(=O)CC[*:2])CN(C(=O)CC[*:3])C1; Bip = N[C@@H](Cc1ccc(-c2ccccc2)cc1)C(=O)O; 1Nal = N[C@@H](Cc1cccc2ccccc12)C(=O)O; Phe(2-Me) = Cc1ccccc1C[C@H](N)C(=O)O; tBuAla = CC(C)(C)C[C@H](N)C(=O)O; 4Pal = N[C@@H](Cc1ccncc1)C(=O)O
# Target: TREM2 extracellular domain (ECD) (residues 19-131, C-terminally biotinylated, deglycosylated or glycosylated) (Homo sapiens, UniProt Q9NZC2)
# Sequence (Q9NZC2 19-131): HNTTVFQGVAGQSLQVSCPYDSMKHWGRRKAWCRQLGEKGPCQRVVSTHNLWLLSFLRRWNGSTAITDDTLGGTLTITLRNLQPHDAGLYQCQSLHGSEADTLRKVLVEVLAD
# Assay: biochemical
# Conditions: Table 4B
# [1] = Human BLI (Kd; nM) (deglycosylated), deglycosylated human TREM2 ECD, steady-state KD, 25° C.
# [2] = Human BLI (Kd; nM) glycosylated, glycosylated human TREM2 ECD
# 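Also: Bio-layer interferometry in 50 mM HEPES pH 7.5 with 150 mM NaCl and 0.1% Tween, double-referenced with blank wells and unrelated-protein sensors, equilibrium response fitted versus concentration.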
# Description: Bio-layer interferometry was performed on an Octet RED384® system (Sartorius) at 25° C. in a buffer containing 50 mM HEPES (pH 7.5), 150 mM NaCl and 0.1% Tween. TREM2 extracellular domain (ECD) (residues 19-131, C-terminally biotinylated, deglycosylated or glycosylated) was loaded onto Superstreptavidin biosensors (SSA, 18-5070, Sartorius) at 0.0125 mg/ml for 300 s. Bicycle peptides (10 mM in DMSO) were dispensed into 384-Well Tilted-Bottom Plates (18-5076, Sartorius) using an Echo liquid handler giving a final DMSO concentration of 0.125% in all wells including control wells. Association of defined concentrations of bicyclic peptide (0-12.5 μM, 1:2 dilutions for 7 points) was recorded over 120 s followed by dissociation in buffer over 120 s. Reference wells containing no bicycle peptides and reference sensors loaded with an unrelated protein (His-tagged MLLT3a) were subjected to the same assay protocol and double reference subtraction was used for processing to account for non-specific binding. Traces were analysed using Octet Software (Version 11.0). Association and dissociation curves were globally fit and the response at equilibrium (Req) plotted against concentration to obtain steady-state KD values.
SMILES,Kd [1],Kd [2]
"CC(=O)N[C@H]1CSCCC(=O)N2CN3CN(C2)C(=O)CCSC[C@H](NC(=O)[C@H](Cc2ccc(O)cc2)NC(=O)[C@H](CCC(=O)O)NC(=O)[C@H](CO)NC1=O)C(=O)N[C@@H](Cc1cccc2ccccc12)C(=O)N[C@@H](Cc1c[nH]c2ccccc12)C(=O)N1CCC[C@H]1C(=O)N[C@@H](Cc1ccccc1)C(=O)N[C@@H](Cc1ccc(O)cc1)C(=O)N[C@@H](Cc1c[nH]cn1)C(=O)N[C@H](C(N)=O)CSCCC3=O [BCY20054, Ac-(SEQ ID NO: 49)] (Ac-CSEYC[1Nal]WPFYHC-NH2; linker 1-5-12 via TATA)",2540 nM,1830 nM
"CC(=O)N[C@H]1CSCCC(=O)N2CN3CN(C2)C(=O)CCSC[C@H](NC(=O)[C@H](Cc2ccc(O)cc2)NC(=O)[C@H](CCC(=O)O)NC(=O)[C@H](CO)NC1=O)C(=O)N[C@@H](Cc1ccccc1)C(=O)N[C@@H](Cc1ccccc1C)C(=O)N1CCC[C@H]1C(=O)N[C@@H](Cc1ccccc1)C(=O)N[C@@H](Cc1ccc(O)cc1)C(=O)N[C@@H](Cc1c[nH]cn1)C(=O)N[C@H](C(N)=O)CSCCC3=O [BCY20063, Ac-(SEQ ID NO: 61)] (Ac-CSEYCF[Phe(2-Me)]PFYHC-NH2; linker 1-5-12 via TATA)",1300 nM,–
"CC(=O)N[C@H]1CSCCC(=O)N2CN3CN(C2)C(=O)CCSC[C@H](NC(=O)[C@H](Cc2ccc(O)cc2)NC(=O)[C@H](CCC(=O)O)NC(=O)[C@H](CO)NC1=O)C(=O)N[C@@H](Cc1ccccc1)C(=O)N[C@@H](Cc1c[nH]c2ccccc12)C(=O)N1CC[C@H]1C(=O)N[C@@H](Cc1ccccc1)C(=O)N[C@@H](Cc1ccc(O)cc1)C(=O)N[C@@H](Cc1c[nH]cn1)C(=O)N[C@H](C(N)=O)CSCCC3=O [BCY20068, Ac-(SEQ ID NO: 64)]",2540 nM,–
"CC(=O)N[C@H]1CSCCC(=O)N2CN3CN(C2)C(=O)CCSC[C@H](NC(=O)[C@H](Cc2ccc(O)cc2)NC(=O)[C@H](CCC(=O)O)NC(=O)[C@H](CO)NC1=O)C(=O)N[C@@H](Cc1ccccc1)C(=O)N[C@@H](Cc1c[nH]c2ccccc12)C(=O)N1CCCC[C@H]1C(=O)N[C@@H](Cc1ccccc1)C(=O)N[C@@H](Cc1ccc(O)cc1)C(=O)N[C@@H](Cc1c[nH]cn1)C(=O)N[C@H](C(N)=O)CSCCC3=O [BCY20069, Ac-(SEQ ID NO: 62)]",1460 nM,–
"CC(=O)N[C@H]1CSCCC(=O)N2CN3CN(C2)C(=O)CCSC[C@H](NC(=O)[C@H](Cc2ccc(O)cc2)NC(=O)[C@H](CCC(=O)O)NC(=O)[C@H](CO)NC1=O)C(=O)N[C@@H](Cc1ccccc1)C(=O)N[C@@H](Cc1c[nH]c2ccccc12)C(=O)N1CCC[C@H]1C(=O)N[C@@H](CC(C)(C)C)C(=O)N[C@@H](Cc1ccc(O)cc1)C(=O)N[C@@H](Cc1c[nH]cn1)C(=O)N[C@H](C(N)=O)CSCCC3=O [BCY20074, Ac-(SEQ ID NO: 68)] (Ac-CSEYCFWP[tBuAla]YHC-NH2; linker 1-5-12 via TATA)",–,920 nM
"CC(=O)N[C@H]1CSCCC(=O)N2CN3CN(C2)C(=O)CCSC[C@H](NC(=O)[C@H](Cc2ccc(O)cc2)NC(=O)[C@H](CCC(=O)O)NC(=O)[C@H](CO)NC1=O)C(=O)N[C@@H](Cc1ccccc1)C(=O)N[C@@H](Cc1c[nH]c2ccccc12)C(=O)N1CCC[C@H]1C(=O)N[C@@H](Cc1ccc(-c2ccccc2)cc1)C(=O)N[C@@H](Cc1ccc(O)cc1)C(=O)N[C@@H](Cc1c[nH]cn1)C(=O)N[C@H](C(N)=O)CSCCC3=O [BCY20075, Ac-(SEQ ID NO: 71)] (Ac-CSEYCFWP[Bip]YHC-NH2; linker 1-5-12 via TATA)",2400 nM,–
"CC(=O)N[C@H]1CSCCC(=O)N2CN3CN(C2)C(=O)CCSC[C@H](NC(=O)[C@H](Cc2ccc(O)cc2)NC(=O)[C@H](CCC(=O)O)NC(=O)[C@H](CO)NC1=O)C(=O)N[C@@H](Cc1ccccc1)C(=O)N[C@@H](Cc1c[nH]c2ccccc12)C(=O)N1CCC[C@H]1C(=O)N[C@@H](Cc1ccccc1)C(=O)N[C@@H](Cc1c[nH]c2ccccc12)C(=O)N[C@@H](Cc1c[nH]cn1)C(=O)N[C@H](C(N)=O)CSCCC3=O [BCY20077, Ac-(SEQ ID NO: 73)] (Ac-CSEYCFWPFWHC-NH2; linker 1-5-12 via TATA)",–,750 nM
"CC(=O)N[C@H]1CSCCC(=O)N2CN3CN(C2)C(=O)CCSC[C@H](NC(=O)[C@H](Cc2ccc(O)cc2)NC(=O)[C@H](CCC(=O)O)NC(=O)[C@H](CO)NC1=O)C(=O)N[C@@H](Cc1ccccc1)C(=O)N[C@@H](Cc1c[nH]c2ccccc12)C(=O)N1CCC[C@H]1C(=O)N[C@@H](Cc1ccccc1)C(=O)N[C@@H](Cc1ccc(O)cc1)C(=O)N[C@@H](CC(N)=O)C(=O)N[C@H](C(N)=O)CSCCC3=O [BCY20083, Ac-(SEQ ID NO: 78)] (Ac-CSEYCFWPFYNC-NH2; linker 1-5-12 via TATA)",1830 nM,–
"CC(=O)N[C@H]1CSCCC(=O)N2CN3CN(C2)C(=O)CCSC[C@H](NC(=O)[C@H](Cc2ccc(O)cc2)NC(=O)[C@H](CCC(=O)O)NC(=O)[C@@H](C)NC1=O)C(=O)N[C@@H](Cc1ccccc1)C(=O)N[C@@H](Cc1c[nH]c2ccccc12)C(=O)N1CCC[C@H]1C(=O)N[C@@H](Cc1ccccc1)C(=O)N[C@@H](Cc1ccc(O)cc1)C(=O)N[C@@H](Cc1c[nH]cn1)C(=O)N[C@H](C(N)=O)CSCCC3=O [BCY20086, Ac-(SEQ ID NO: 79)]",17900 nM,–
"CC(=O)N[C@H]1CSCCC(=O)N2CN3CN(C2)C(=O)CCSC[C@H](NC(=O)[C@H](Cc2ccc(O)cc2)NC(=O)[C@@H](C)NC(=O)[C@H](CO)NC1=O)C(=O)N[C@@H](Cc1ccccc1)C(=O)N[C@@H](Cc1c[nH]c2ccccc12)C(=O)N1CCC[C@H]1C(=O)N[C@@H](Cc1ccccc1)C(=O)N[C@@H](Cc1ccc(O)cc1)C(=O)N[C@@H](Cc1c[nH]cn1)C(=O)N[C@H](C(N)=O)CSCCC3=O [BCY20087, Ac-(SEQ ID NO: 80)]",18000 nM,–
"CC(=O)N[C@H]1CSCCC(=O)N2CN3CN(C2)C(=O)CCSC[C@H](NC(=O)[C@H](Cc2ccc(O)cc2)NC(=O)[C@H](CCC(=O)O)NC(=O)[C@H](CO)NC1=O)C(=O)N[C@@H](Cc1ccccc1)C(=O)N[C@@H](Cc1c[nH]c2ccccc12)C(=O)N1CCC[C@H]1C(=O)N[C@@H](Cc1ccccc1)C(=O)N[C@@H](CCC(N)=O)C(=O)N[C@@H](Cc1ccc(O)cc1)C(=O)N[C@H](C(N)=O)CSCCC3=O [BCY20220, Ac-(SEQ ID NO: 23)] (Ac-CSEYCFWPFQYC-NH2; linker 1-5-12 via TATA)",1300 nM,–
"CC(=O)N[C@H]1CSCCC(=O)N2CN3CN(C2)C(=O)CCSC[C@H](NC(=O)[C@H](Cc2ccc(O)cc2)NC(=O)[C@H](CCC(=O)O)NC(=O)[C@H](CO)NC1=O)C(=O)N[C@@H](Cc1ccccc1)C(=O)N[C@@H](Cc1c[nH]c2ccccc12)C(=O)N1CCC[C@H]1C(=O)N[C@@H](Cc1ccncc1)C(=O)N[C@@H](Cc1ccc(O)cc1)C(=O)N[C@@H](Cc1c[nH]cn1)C(=O)N[C@H](C(N)=O)CSCCC3=O [BCY20569, Ac-(SEQ ID NO: 95)] (Ac-CSEYCFWP[4Pal]YHC-NH2; linker 1-5-12 via TATA)",3800 nM,–
"CC(=O)N[C@H]1CSCCC(=O)N2CN3CN(C2)C(=O)CCSC[C@H](NC(=O)[C@H](Cc2ccc(O)cc2)NC(=O)[C@H](CCC(=O)O)NC(=O)[C@H](CO)NC1=O)C(=O)N[C@@H](Cc1ccccc1)C(=O)N[C@@H](Cc1c[nH]c2ccccc12)C(=O)N1CCC[C@H]1C(=O)N[C@@H](Cc1ccccc1)C(=O)N[C@@H](Cc1ccc(O)cc1)C(=O)N[C@@H](CCC(N)=O)C(=O)N[C@H](C(N)=O)CSCCC3=O [BCY20572, Ac-(SEQ ID NO: 98)] (Ac-CSEYCFWPFYQC-NH2; linker 1-5-12 via TATA)",1060 nM,–
